# Results reported in PubChem BioAssay (NCI).
# “And” between values parts separate entries of the source, which are not always exact repeats. Identical values can stand only once.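 Cultured in 96-well plates, cells were exposed to test compound for 48 hours across five concentrations. GI50 = concentration required for 50% inhibition of growth. TGI denotes the concentration required for complete inhibition of growth.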
# Assays:
# Assay in all cases: DTP human tumour cell line panel, 48 h
# NCI-H23 lung = test system: NCI-H23 lung
# HCT-116 colon = test system: HCT-116 colon
# LOX IMVI melanoma = test system: LOX IMVI melanoma
# HS 578T breast = test system: HS 578T breast
# EKVX NSCLC = test system: EKVX NSCLC
# SF-539 CNS = test system: SF-539 CNS
# SNB-75 CNS = test system: SNB-75 CNS
# UACC-62 melanoma = test system: UACC-62 melanoma
# RPMI-8226 leukemia = test system: RPMI-8226 leukemia
# SF-295 CNS = test system: SF-295 CNS
Structure (SMILES),GI50 (NCI-H23 lung),TGI (NCI-H23 lung),GI50 (HCT-116 colon),TGI (HCT-116 colon),GI50 (LOX IMVI melanoma),TGI (LOX IMVI melanoma),GI50 (HS 578T breast),TGI (HS 578T breast),GI50 (EKVX NSCLC),TGI (EKVX NSCLC),GI50 (SF-539 CNS),TGI (SF-539 CNS),GI50 (SNB-75 CNS),TGI (SNB-75 CNS),GI50 (UACC-62 melanoma),TGI (UACC-62 melanoma),GI50 (RPMI-8226 leukemia),TGI (RPMI-8226 leukemia),GI50 (SF-295 CNS),TGI (SF-295 CNS)
CCN1CCC[C@H]1c1cc(O)c2c(c1OC)C[C@H]1C[C@H]3[C@H](N)C(=O)C(C(N)=O)=C(O)[C@@]3(O)C(=O)C1=C2O,0.167 µM,2.18 µM,0.0456 µM,1.96 µM,0.0386 µM,1.23 µM,0.0495 µM,1.12 µM,0.203 µM,3.54 µM,0.0634 µM,0.593 µM,0.0609 µM,1.58 µM,0.0668 µM,1.3 µM,0.041 µM,0.454 µM,0.208 µM,3.8 µM
CCCNc1nc(N(C)O)nc(N(C)O)n1,4.73 µM,> 100 µM,1.63 µM,> 53.8 µM,1.31 µM,> 100 µM,6.51 µM,> 100 µM,2.04 µM,> 100 µM,2.51 µM,> 54.4 µM,16.4 µM,> 75.3 µM,3.09 µM,> 56.9 µM,0.689 µM,4.46 µM,2.36 µM,> 56.2 µM
CCCCCCN(CCCCCC)CCCNc1nccc2ccccc12,1.8 µM,3.83 µM,0.832 µM,2.2 µM,1.43 µM,2.94 µM,2.13 µM,5.66 µM,2.65 µM,11.8 µM,1.94 µM,3.59 µM,1.65 µM,4.22 µM,1.69 µM,3.41 µM,1.73 µM,4.11 µM,0.951 µM,2.24 µM
Cc1cccc(CN(C)c2ccc(CO)c(Cl)c2)c1,14.6 µM,> 73.1 µM,0.549 µM,12.3 µM,18 µM,40.4 µM,22.5 µM,> 83.3 µM,22.6 µM,90.1 µM,26.8 µM,> 77.3 µM,18.8 µM,80 µM,0.301 µM,2.96 µM,14.4 µM,> 69.3 µM,4.87 µM,46.8 µM
CC(=O)Nc1ccc2nncnc2c1,–,> 100 µM,–,> 100 µM,–,> 100 µM,–,> 100 µM,–,> 100 µM,–,> 100 µM,–,> 100 µM,–,> 100 µM,–,> 100 µM,–,> 100 µM
COc1ccc2c(c1)C(=O)c1c-2n(CCCN=[N+]=[N-])c(=O)c2ccccc12,50.4 µM,> 100 µM,26.7 µM,> 100 µM,27.9 µM,> 100 µM,62.4 µM,> 100 µM,63 µM,> 100 µM,44.8 µM,> 100 µM,18.8 µM,65.2 µM,75.5 µM,> 100 µM,51.3 µM,> 100 µM,18.5 µM,> 100 µM
Oc1nc(NCCc2ccccc2)sc1/C=C1\C=Nc2ncccc21,1.62 µM and 2.4 µM,5.72 µM and 8.12 µM,1.03 µM and 1.23 µM,11.1 µM and 6.5 µM,2.36 µM and 2.61 µM,10.6 µM and 9.37 µM,2.55 µM and 3.19 µM,7.44 µM and 9.51 µM,3.18 µM and 3.52 µM,29.6 µM and 26.9 µM,1.32 µM and 1.47 µM,3.82 µM and 3.65 µM,1.81 µM and 1.8 µM,4.11 µM and 4.29 µM,2.38 µM and 2.93 µM,8.56 µM and 8.7 µM,3.21 µM and 2.99 µM,12.5 µM and 16.1 µM,3.32 µM and 3.14 µM,13.2 µM and 23.6 µM
CC(C)=CC/C=C(/C)[C@H]1CC[C@]2(C)[C@@H]1CC[C@@H]1[C@@]3(C)CCC(=O)NC(C)(C)[C@@H]3CC[C@]12C,18.3 µM,45.7 µM,15 µM,34.5 µM,17.9 µM,32.4 µM,26.3 µM,94.3 µM,27.7 µM,84 µM,16.5 µM,30.5 µM,20.9 µM,55.1 µM,16.9 µM,43.5 µM,11.8 µM,34.6 µM,18.7 µM,36.6 µM
CCOc1ccc(Cc2nccc3cc(OCC)c(OCC)cc23)cc1OCC,1.93 µM,21.6 µM,1.52 µM,13.4 µM,2.9 µM,17 µM,13.2 µM,57.7 µM,3.64 µM,27.1 µM,5.87 µM,20.7 µM,13.4 µM,41.9 µM,2.72 µM,16.5 µM,2.01 µM,22.4 µM,0.688 µM,15.8 µM
COc1cc2c(cc1OC)C(CCc1ccc(Cl)cc1)N(C)CC2 (configuration not stated),30.1 µM,> 100 µM,13.8 µM,52.9 µM,15 µM,30.8 µM,18.3 µM,51.4 µM,16.7 µM,81 µM,17.1 µM,39 µM,11.9 µM,43.5 µM,20.1 µM,44.5 µM,24.9 µM,> 100 µM,9.32 µM,27 µM
CC1=C(N2CC2)C(=O)C(CO)=C(N2CC2)C1=O,0.00143 µM,–,0.00728 µM,0.0392 µM and 0.336 µM,0.00307 µM,0.0226 µM and 0.187 µM,0.139 µM,0.352 µM and 1.43 µM,–,0.99 µM,0.00301 µM,0.019 µM and 0.0593 µM,–,0.38 µM,–,0.146 µM and 0.23 µM,0.00102 µM,0.0147 µM and 0.0824 µM,0.0329 µM,1.06 µM
COC(=O)[C@]12CC[C@@H](C)[C@H](C)[C@@H]1C1=CC[C@@H]3[C@@]4(C)C[C@@H](OC(=O)c5ccco5)[C@H](O)[C@@](C)(CO)[C@@H]4[C@H](O)C[C@@]3(C)[C@]1(C)CC2,2.42 µM,6.66 µM,1.88 µM,3.41 µM,1.68 µM,3.1 µM,2.24 µM,7.4 µM,2.78 µM,8.67 µM,2.28 µM,5.17 µM,2.38 µM,11.7 µM,–,–,2.55 µM,7.56 µM,1.84 µM,3.87 µM
N/C(=N\O)c1ncc(-c2ccc(C(F)(F)F)cc2)c(NC2CCCCCC2)n1,3.76 µM,16.3 µM,3.95 µM and 1.41 µM,11.9 µM,8.76 µM and 2.85 µM,10.8 µM,5.67 µM,23.2 µM,–,–,3.39 µM,12.3 µM,5.11 µM,20.6 µM,9.12 µM and 2.65 µM,10.5 µM,8.66 µM and 2.66 µM,9.54 µM,2.55 µM,12.5 µM
